Source: US20240024317A1, “CANCER TREATMENT USING BOSENTAN IN COMBINATION WITH A CHECKPOINT INHIBITOR” (Materia Therapeutics Inc., priority 2020, published 2024)

Columns and labels:
Type in all cases: in vivo, mice
[1] = system: 4T1 tumors; assay: Ultrasound shear wave elastography of tissue stiffness, bosentan dose response; settings: 1 mg/kg daily bosentan i.p.; 4T1 breast tumors
Description: (§1) Mice bearing syngeneic, orthotopic triple negative breast cancer (TNBC) were treated with a range of sub-therapeutic doses of bosentan, from 0.2 mg/kg to 10 mg/kg of body weight. Orthotopic models for murine mammary tumors were generated by implantation of 5×10^4 4T1 or E0771 cancer cells in 40 μl of serum-free medium into the third mammary fat pad of 6-8-week-old BALB/c and C57BL/6 female mice, respectively. 4T1 (ATCC® CRL-2539TH) and E0771 (94A001, CH3 BioSystems) mouse breast adenocarcinoma cell lines were purchased form ATCC and CH3 BioSystems, respectively. The cells were maintained at 37° C./5% CO2 in Roswell Park Memorial Institute medium (RPMI-1640, LM-R1637, Biosera) supplemented with 10% fetal bovine serum (FBS, FB-1001H, biosera) and 1% antibiotics (A5955, Sigma). Bosentan (bosentan Hydrate (S3051, Selleckchem) was dissolved in ddH2O containing 2% DMSO (GK2245, Glentham Life Science), 30% PEG300 (S6704, Selleckchem) and 2% Tween 80 (S6702, Selleckchem)) 1 mg/kg, 5 mg/kg, 10 mg/kg or equal volume of diluent (control group) was administered by intraperitoneal injection (i.p.) once a day for 10 days, starting from once the tumor volumes reached an average size of 100 mm^3. Tumors were excised when they reached an average size of 500 mm^3. Tissue stiffness was then measured non-invasively and longitudinally using ultrasound elastography. […]

[2] = system: E0771 tumors; assay: as above; settings: 1 mg/kg daily bosentan i.p.; E0771 breast tumors
Description: as §1

[3] = system: 4T1 or E0771 tumors; assay: Tumor growth under bosentan monotherapy (dose response studies); settings: bosentan monotherapy at any dose
Description: as §1

[4] = Mouse body weight under bosentan monotherapy; settings: bosentan monotherapy at any dose
Description: as §1

[5] = system: 4T1 tumors; assay: Dynamic contrast-enhanced ultrasound (DCEUS) perfusion measures; settings: bosentan treated versus control or immunotherapy cocktail only
Description: Dynamic contrast-enhanced ultrasound (DCEUS). Tumor associated vascular perfusion was assessed with DCEUS after bolus injection of contrast agents (8 μl of sulphur hexafluoride microbubbles encapsulated by a phospholipid shell with a mean diameter of 2.5 μm, retro-orbital administration). Ultrasound scanning of tumor was performed using the L12-5 transducer. Contrast first harmonic signals were received at 8 MHz with a mechanical index of 0.06. For all subjects the depth was set to 3 cm allowing measurements of the full depth of the tumor. Gain was set at 90% for each recording. Focus was optimized and standardized for each subject when finding the tumor area using B-mode imaging. Real-time power modulation imaging was started after flashing imaging with a high mechanical index to destroy the microbubbles in tumor tissue to peak contrast intensity to allow visualization of bubble replenishment. Image analysis was performed offline using an ultrasound quantification and analysis software (QLAB, Phillips Medical Systems). From the produced time intensity curves, we used as measures of perfusion the Mean transit time and the time required to reach the peak intensity (Rise time). […]

## COc1ccccc1Oc1c(NS(=O)(=O)c2ccc(C(C)(C)C)cc2)nc(-c2ncccn2)nc1OCCO [bosentan, 4-tert-butyl-N-[6-(2-hydroxy-ethoxy)-5-(2-methoxy-phenoxy)-2-(pyrimidin-2-yl)pyrimidin-4-yl] benzenesulfonamide]
[1]
  tissue stiffness (ultrasound elastography): reduced tissue stiffness
[2]
  tissue stiffness (ultrasound elastography): reduced tissue stiffness
[3]
  tumor growth: did not affect
[4]
  mouse body weight: did not affect
[5]
  mean transit time (DCEUS): higher
  rise time (DCEUS): higher
